Measurements taken from ChEMBL document CHEMBL4823249, “Discovery of a Pyrimidinedione Derivative as a Potent and Orally Bioavailable Axl Inhibitor” (J Med Chem, 2021).

Assays:
[1] = target: T1, Tyrosine-protein kinase receptor UFO (Homo sapiens, UniProt P30530); assay: Inhibition of AXL (unknown origin) using poly [Glu, Tyr] 4:1 as substrate incubated for 60 mins in presence of ATP by ELISA
T1 sequence (P30530 whole entry): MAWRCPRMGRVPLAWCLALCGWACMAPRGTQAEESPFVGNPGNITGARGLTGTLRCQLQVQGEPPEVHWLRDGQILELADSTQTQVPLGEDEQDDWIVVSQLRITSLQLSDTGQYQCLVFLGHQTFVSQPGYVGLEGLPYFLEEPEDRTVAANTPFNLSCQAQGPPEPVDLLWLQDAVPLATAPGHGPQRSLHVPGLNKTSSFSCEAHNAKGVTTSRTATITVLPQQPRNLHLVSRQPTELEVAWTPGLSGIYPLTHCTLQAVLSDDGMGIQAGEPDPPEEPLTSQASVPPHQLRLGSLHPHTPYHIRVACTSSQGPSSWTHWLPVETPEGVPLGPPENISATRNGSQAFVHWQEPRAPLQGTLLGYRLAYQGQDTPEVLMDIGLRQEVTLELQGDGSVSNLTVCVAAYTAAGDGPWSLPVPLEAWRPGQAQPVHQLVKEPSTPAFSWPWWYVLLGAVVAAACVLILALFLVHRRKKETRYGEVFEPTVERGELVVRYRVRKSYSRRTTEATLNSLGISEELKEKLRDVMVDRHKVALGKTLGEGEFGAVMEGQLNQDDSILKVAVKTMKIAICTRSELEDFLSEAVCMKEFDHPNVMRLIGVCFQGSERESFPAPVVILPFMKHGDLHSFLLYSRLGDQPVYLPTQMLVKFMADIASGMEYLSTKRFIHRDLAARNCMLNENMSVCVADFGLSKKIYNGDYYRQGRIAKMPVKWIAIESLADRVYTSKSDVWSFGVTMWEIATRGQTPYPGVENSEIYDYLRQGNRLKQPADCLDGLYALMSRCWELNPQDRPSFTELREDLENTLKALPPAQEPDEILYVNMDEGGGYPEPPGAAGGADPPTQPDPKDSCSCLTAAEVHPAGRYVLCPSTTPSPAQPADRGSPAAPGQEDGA

[2] = AUC(0 to infinity) in Sprague-Dawley rat at 3 mg/kg, po measured upto 24 hrs by LC-MS analysis; format: ADME, organism-based; design: route oral, dose 3 mg/kg, time <=24; settings: in vivo
[3] = Cmax in Sprague-Dawley rat at 3 mg/kg, po measured upto 24 hrs by LC-MS analysis; format: ADME, organism-based; design: route oral, dose 3 mg/kg, time <=24; settings: in vivo
[4] = AUC(0 to infinity) in ICR mouse at 3 mg/kg, po measured upto 24 hrs by LC-MS analysis; format: ADME, organism-based; design: route oral, dose 3 mg/kg, time <=24; settings: in vivo
[5] = AUC(0 to infinity) in ICR mouse at 1 mg/kg, iv measured upto 24 hrs by LC-MS analysis; format: ADME, organism-based; design: route intravenous, dose 1 mg/kg, time <=24; settings: in vivo
[6] = target: Tyrosine-protein kinase receptor TYRO3 (Homo sapiens, UniProt Q06418); assay: Inhibition of recombinant human RSE (451 to end residues) using KVEKIGEGTYGVVYK as substrate incubated for 40 mins in presence of [gamma33P]ATP by scintillation counting based radiometry assay
Chain of Tyrosine-protein kinase receptor TYRO3 (Q06418 whole entry): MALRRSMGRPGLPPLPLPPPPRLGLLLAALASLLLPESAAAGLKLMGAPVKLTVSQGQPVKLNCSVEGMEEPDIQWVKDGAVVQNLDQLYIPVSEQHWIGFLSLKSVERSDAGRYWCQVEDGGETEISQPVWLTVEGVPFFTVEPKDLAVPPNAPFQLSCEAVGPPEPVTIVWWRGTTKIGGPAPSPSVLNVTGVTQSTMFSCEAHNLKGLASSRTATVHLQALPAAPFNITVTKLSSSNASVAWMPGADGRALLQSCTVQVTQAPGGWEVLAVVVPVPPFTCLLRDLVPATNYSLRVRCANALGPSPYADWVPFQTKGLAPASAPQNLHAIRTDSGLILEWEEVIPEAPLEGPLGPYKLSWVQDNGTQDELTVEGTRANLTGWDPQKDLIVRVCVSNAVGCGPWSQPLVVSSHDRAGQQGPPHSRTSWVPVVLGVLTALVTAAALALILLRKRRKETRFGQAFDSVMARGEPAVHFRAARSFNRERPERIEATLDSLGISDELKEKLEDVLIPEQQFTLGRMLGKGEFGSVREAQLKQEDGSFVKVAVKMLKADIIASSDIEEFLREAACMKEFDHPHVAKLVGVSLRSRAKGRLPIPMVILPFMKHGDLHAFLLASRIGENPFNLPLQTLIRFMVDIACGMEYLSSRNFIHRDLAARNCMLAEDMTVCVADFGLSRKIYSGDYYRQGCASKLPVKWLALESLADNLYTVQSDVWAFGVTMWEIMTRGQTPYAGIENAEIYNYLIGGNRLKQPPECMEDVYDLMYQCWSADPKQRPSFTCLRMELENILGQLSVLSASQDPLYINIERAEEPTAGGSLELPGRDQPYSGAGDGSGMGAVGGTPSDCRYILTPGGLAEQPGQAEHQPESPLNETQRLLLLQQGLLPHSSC

[7] = target: Vascular endothelial growth factor receptor 2 (Homo sapiens, UniProt P35968); assay: Inhibition of recombinant human KDR (790 to end residues) using myelin basic protein as substrate incubated for 40 mins by [gamma-33P]-ATP scintillation counting based radiometry assay
Chain of Vascular endothelial growth factor receptor 2 (P35968 whole entry): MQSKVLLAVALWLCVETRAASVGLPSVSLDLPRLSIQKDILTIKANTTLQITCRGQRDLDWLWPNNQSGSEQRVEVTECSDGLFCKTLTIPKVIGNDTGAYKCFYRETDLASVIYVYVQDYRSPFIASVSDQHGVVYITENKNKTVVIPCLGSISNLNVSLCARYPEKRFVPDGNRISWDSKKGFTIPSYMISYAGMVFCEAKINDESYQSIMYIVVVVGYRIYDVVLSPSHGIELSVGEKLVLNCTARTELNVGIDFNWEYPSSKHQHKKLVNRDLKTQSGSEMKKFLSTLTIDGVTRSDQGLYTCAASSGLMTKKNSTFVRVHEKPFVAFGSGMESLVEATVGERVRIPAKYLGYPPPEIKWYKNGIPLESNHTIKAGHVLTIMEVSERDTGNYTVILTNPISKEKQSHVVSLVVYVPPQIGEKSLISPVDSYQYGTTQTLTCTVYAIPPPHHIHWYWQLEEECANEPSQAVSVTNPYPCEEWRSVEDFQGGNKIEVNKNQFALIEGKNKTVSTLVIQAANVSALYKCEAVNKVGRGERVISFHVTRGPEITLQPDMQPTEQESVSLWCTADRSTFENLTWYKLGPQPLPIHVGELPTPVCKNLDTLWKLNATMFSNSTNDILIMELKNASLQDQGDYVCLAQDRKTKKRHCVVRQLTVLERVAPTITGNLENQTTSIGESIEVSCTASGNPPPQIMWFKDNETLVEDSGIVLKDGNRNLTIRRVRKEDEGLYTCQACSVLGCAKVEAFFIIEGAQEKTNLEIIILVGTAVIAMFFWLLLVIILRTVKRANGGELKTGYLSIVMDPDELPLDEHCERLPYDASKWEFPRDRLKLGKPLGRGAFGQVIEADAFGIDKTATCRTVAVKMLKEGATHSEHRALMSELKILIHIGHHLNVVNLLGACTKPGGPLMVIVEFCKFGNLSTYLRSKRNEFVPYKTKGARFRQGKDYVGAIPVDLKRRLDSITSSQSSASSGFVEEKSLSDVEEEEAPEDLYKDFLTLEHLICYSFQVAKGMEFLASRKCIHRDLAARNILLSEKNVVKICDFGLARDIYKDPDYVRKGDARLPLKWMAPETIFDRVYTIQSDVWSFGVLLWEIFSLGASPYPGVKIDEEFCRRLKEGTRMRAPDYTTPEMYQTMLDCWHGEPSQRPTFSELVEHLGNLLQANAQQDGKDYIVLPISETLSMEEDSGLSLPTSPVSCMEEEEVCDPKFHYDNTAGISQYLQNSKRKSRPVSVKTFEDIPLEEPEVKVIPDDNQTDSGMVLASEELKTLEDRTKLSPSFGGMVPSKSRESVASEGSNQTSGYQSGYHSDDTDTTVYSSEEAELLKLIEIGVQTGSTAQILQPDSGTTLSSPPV

[8] = target: Mast/stem cell growth factor receptor Kit (Homo sapiens, UniProt P10721); assay: Inhibition of recombinant human C-Kit using poly(Glu, Tyr) 4:1 as substrate incubated for 40 mins in presence of [gamma-33ATP] by scintillation counting based radiometry assay
[9] = target: Dual specificity protein kinase CLK1 (Homo sapiens, UniProt P49759); assay: Inhibition of human recombinant CLK1 (130 to end residues) using ERMRPRKRQGSVR as substrate incubated for 40 mins in presence of [gamma-33ATP] by radiometric scintillation counting analysis
Focal adhesion kinase 1 = Focal adhesion kinase 1 (Homo sapiens, UniProt Q05397); assay: Inhibition of human recombinant FAK1 (411 to 686 residues) using EEEEYEEEEEEYY as substrate incubated for 40 mins in presence of [gamma-33ATP] by radiometric scintillation counting analysis
Chain of Focal adhesion kinase 1 (Q05397 whole entry, the tested form may be a part): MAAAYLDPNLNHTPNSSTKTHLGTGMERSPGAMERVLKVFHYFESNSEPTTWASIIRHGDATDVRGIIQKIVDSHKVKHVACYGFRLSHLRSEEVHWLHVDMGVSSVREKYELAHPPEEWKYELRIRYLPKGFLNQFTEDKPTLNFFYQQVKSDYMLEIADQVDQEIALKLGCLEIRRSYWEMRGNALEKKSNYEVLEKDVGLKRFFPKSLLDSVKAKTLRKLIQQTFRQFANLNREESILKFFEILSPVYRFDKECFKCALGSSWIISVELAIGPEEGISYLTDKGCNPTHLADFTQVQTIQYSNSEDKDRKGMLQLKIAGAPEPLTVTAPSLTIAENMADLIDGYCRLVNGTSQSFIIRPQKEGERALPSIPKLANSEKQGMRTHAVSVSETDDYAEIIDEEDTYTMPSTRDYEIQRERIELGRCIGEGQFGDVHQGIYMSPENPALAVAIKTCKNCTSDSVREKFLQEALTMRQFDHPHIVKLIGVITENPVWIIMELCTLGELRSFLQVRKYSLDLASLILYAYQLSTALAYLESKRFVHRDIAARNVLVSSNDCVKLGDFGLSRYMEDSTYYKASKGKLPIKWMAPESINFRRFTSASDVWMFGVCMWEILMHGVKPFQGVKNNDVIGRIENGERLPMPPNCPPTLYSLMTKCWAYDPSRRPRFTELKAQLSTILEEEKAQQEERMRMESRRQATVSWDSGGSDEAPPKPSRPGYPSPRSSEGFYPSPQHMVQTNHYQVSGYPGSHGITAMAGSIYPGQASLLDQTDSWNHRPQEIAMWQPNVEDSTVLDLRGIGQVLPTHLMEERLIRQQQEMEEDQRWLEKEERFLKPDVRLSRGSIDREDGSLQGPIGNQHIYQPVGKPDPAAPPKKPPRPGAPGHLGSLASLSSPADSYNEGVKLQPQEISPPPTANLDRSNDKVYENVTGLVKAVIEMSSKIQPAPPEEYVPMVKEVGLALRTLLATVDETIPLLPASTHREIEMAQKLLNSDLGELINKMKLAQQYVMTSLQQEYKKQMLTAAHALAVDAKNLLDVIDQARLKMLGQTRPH

[10] = target: Dual specificity mitogen-activated protein kinase kinase 1 (Homo sapiens, UniProt Q02750); assay: Inhibition of recombinant human MEK1 using inactive MAPK2 as substrate incubated for 40 mins in presence of [gamma-33ATP] by scintillation counting based radiometry assay
Chain of Dual specificity mitogen-activated protein kinase kinase 1 (Q02750 whole entry): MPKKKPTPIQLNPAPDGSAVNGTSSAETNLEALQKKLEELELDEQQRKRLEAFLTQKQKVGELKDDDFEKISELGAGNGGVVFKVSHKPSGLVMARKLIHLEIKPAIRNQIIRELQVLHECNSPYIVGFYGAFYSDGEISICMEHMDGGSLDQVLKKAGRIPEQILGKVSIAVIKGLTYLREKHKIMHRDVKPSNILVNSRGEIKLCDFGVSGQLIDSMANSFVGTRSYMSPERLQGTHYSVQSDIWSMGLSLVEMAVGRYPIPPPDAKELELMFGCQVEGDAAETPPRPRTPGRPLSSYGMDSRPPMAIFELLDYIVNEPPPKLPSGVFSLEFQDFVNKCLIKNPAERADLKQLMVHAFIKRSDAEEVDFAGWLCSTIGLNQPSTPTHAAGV

[11] = target: Serine/threonine-protein kinase mTOR (Homo sapiens, UniProt P42345); assay: Inhibition of full length recombinant human mTOR incubated for 40 mins in presence of [gamma-33ATP] by scintillation counting based radiometry assay
[12] = target: Tyrosine-protein kinase SYK (Homo sapiens, UniProt P43405); assay: Inhibition of recombinant human full length SYK using poly(Glu, Tyr) 4:1 as substrate incubated for 40 mins in presence of [gamma33P]ATP by scintillation counting based radiometry assay
[13] = Inhibition of recombinant human PKA using Kemptide as substrate measured after 40 mins in presence of [gamma33P]ATP by scintillation counting based radiometry assay
[14] = target: Ribosomal protein S6 kinase alpha-1 (Homo sapiens, UniProt Q15418); assay: Inhibition of recombinant full length human Rsk1 using KKKNRTLSVA as substrate incubated for 40 mins in presence of [gamma33P]ATP by scintillation counting based radiometry assay
CDK2/Cyclin A2 = CDK2/Cyclin A2 (Homo sapiens, UniProt P24941); assay: Inhibition of full length human recombinant CDK2/Cyclin A using histone H1 as substrate incubated for 40 mins in presence of [gamma-33ATP] by radiometric scintillation counting analysis; format: protein-complex assay
[15] = target: T2, Hepatocyte growth factor receptor (Homo sapiens, UniProt P08581); assay: Inhibition of MET signaling in human MKN45 cells assessed as reduction in phosphorylation of MET after 2 hrs by Western blotting analysis; format: cell-based; settings: MKN-45, dose 10-100 nM
T2 sequence (P08581 whole entry): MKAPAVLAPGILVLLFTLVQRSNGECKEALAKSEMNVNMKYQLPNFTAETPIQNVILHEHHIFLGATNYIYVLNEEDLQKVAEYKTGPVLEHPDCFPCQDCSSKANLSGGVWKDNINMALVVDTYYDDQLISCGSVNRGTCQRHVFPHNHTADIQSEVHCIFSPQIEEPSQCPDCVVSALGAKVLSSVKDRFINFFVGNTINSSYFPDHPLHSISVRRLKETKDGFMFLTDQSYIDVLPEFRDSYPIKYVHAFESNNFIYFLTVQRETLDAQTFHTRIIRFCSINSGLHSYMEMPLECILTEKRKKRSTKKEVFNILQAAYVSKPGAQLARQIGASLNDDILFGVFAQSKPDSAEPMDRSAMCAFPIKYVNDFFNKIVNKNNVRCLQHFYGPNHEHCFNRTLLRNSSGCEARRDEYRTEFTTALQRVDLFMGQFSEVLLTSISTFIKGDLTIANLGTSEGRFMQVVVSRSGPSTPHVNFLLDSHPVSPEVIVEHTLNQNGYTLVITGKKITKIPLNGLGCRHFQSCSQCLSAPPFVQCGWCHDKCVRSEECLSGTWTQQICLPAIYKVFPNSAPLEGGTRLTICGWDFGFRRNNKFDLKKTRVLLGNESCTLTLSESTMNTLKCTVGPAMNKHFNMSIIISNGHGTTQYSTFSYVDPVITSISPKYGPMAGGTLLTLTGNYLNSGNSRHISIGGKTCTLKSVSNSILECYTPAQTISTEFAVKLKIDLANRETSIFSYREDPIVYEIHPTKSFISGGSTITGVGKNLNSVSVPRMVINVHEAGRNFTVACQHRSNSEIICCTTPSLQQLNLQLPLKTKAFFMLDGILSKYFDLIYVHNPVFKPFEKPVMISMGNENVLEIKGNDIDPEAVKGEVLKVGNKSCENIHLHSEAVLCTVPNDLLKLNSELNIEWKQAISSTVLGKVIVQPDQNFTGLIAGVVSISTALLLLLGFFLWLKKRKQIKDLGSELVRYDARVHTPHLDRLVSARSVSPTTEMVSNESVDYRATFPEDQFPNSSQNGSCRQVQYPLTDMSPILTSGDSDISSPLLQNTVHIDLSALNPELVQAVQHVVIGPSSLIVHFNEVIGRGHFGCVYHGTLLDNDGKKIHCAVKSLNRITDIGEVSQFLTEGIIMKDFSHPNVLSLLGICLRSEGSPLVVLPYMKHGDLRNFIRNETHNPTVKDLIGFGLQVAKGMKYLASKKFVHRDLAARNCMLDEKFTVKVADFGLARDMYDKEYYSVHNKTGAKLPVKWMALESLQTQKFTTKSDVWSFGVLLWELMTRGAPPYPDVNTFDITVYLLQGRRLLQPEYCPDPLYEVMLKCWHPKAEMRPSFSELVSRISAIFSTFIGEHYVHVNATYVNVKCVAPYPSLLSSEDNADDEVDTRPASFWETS

[16] = target: T2, Hepatocyte growth factor receptor; assay: Inhibition of MET signaling in human MKN45 cells assessed as reduction in phosphorylation of ERK after 2 hrs by Western blotting analysis; format: cell-based; settings: MKN-45, dose 10-100 nM
HCC78 = assay: Antiproliferative activity against human HCC78 cells incubated for 72 hrs by SRB or CCK8 assay; format: functional, cell-based; settings: HCC78, 72 h
HCC827 = assay: Antiproliferative activity against human HCC827 cells incubated for 72 hrs by SRB or CCK8 assay; format: functional, cell-based; settings: HCC827, 72 h
U-87 MG [17] = assay: Antitumor activity against human U-87MG cells xenografted in BALB/c nude mouse assessed as tumor growth inhibition at 25 mg/kg, po administered once daily for 14 days by caliper method; format: functional, U-87MG ATCC; settings: 336 h, time 14 day, read-out: TGI
U-87 MG [18] = assay: Antitumor activity against human U-87MG cells xenografted in BALB/c nude mouse assessed as tumor growth inhibition at 100 mg/kg, po administered once daily for 14 days by caliper method; format: functional, U-87MG ATCC; settings: 336 h, time 14 day, read-out: TGI
U-87 MG [19] = assay: Antitumor activity against human U-87MG cells xenografted in po dosed BALB/c nude mouse assessed as tumor growth inhibition administered once daily for 14 days by caliper method; format: functional, organism-based; settings: U-87MG ATCC, dose 5-100 mg/kg, time 14.0 day

IC50 [1]: 0.0009 µM
AUC(0-inf) [2]: 43900 ng·h/mL
Cmax [3]: 4560 ng/mL
AUC(0-inf) [4]: 25100 ng·h/mL
AUC(0-inf) [5]: 7360 ng·h/mL
IC50 [6]: 0.001 µM
IC50 [7]: > 1 µM
IC50 [8]: > 1 µM
IC50 [9]: > 1 µM
IC50 (Focal adhesion kinase 1): > 1 µM
IC50 [10]: > 1 µM
IC50 [11]: > 1 µM
IC50 [12]: > 0.1 µM
IC50 [13]: > 1 µM
IC50 [14]: > 1 µM
IC50 (CDK2/Cyclin A2): > 1 µM
inhibition [15]: Dose-Dependent Effect
inhibition [16]: Dose-Dependent Effect
IC50 (HCC78): > 10 µM
IC50 (HCC827): > 10 µM
SMILES: CC(C)n1cc(C(=O)Nc2ccc(Oc3ccnc(NC(=O)C4CC4)c3)c(F)c2)c(=O)n(-c2ccc(F)cc2)c1=O
inhibition in vivo at 25 mg/kg (U-87 MG [17]): 89.8%
inhibition in vivo at 100 mg/kg (U-87 MG [18]): 99.1%
Activity (U-87 MG [19]): Dose-Dependent Effect
